Assay results published in ChEMBL document CHEMBL5528038, “Discovery of 2,3-Diaminoindole Derivatives as a Novel Class of NOD Antagonists” (J Med Chem, 2024).

Legend:
[1] = target: T1, Nucleotide-binding oligomerization domain-containing protein 1 (Homo sapiens, UniProt Q9Y239)
T1 sequence (Q9Y239 whole entry): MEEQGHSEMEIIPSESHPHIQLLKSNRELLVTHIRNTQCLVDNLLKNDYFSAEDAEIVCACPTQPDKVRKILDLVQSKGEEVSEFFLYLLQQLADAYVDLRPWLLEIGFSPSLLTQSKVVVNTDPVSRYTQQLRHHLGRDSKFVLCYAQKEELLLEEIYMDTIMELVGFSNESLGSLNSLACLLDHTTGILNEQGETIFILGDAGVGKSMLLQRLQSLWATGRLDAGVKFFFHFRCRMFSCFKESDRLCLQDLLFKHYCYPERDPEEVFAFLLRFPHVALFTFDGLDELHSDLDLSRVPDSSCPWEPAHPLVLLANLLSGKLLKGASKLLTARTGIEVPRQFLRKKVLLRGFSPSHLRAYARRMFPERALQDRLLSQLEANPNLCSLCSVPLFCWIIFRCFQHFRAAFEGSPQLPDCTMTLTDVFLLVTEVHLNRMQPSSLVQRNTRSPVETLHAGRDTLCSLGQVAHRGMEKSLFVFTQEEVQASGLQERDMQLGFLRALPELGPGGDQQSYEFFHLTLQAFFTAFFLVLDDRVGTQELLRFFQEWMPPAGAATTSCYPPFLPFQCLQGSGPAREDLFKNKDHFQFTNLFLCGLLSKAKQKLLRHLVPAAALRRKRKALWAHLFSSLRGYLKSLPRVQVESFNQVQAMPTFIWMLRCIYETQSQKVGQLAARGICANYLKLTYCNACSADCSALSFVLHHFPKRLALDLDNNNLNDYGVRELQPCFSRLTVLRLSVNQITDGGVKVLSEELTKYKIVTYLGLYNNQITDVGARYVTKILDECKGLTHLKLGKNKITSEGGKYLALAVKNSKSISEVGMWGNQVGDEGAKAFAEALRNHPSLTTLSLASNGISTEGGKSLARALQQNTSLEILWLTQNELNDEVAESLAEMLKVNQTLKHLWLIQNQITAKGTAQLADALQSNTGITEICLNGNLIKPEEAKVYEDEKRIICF
Description: Antagonist activity at human NOD1 expressed in HEK-Blue cells coexpressing NF-kappaB-inducible SEAP reporter gene assessed as inhibition of C12-iE-DAP-induced NF-kappaB transcriptional activity by measuring decrease in SEAP activity preincubated for 1 hr followed by C12-iE-DAP addition and measured after 18 hrs by spectrophotometric analysis

[2] = in vitro; settings: human, HEK-Blue hNOD2 cells
[3] = in vitro; settings: human, HEK-Blue hNOD1 cells
[4] = target: Nucleotide-binding oligomerization domain-containing protein 2 (Homo sapiens, UniProt Q9HC29)
Sequence of Nucleotide-binding oligomerization domain-containing protein 2 (Q9HC29 whole entry, the tested form may be a part): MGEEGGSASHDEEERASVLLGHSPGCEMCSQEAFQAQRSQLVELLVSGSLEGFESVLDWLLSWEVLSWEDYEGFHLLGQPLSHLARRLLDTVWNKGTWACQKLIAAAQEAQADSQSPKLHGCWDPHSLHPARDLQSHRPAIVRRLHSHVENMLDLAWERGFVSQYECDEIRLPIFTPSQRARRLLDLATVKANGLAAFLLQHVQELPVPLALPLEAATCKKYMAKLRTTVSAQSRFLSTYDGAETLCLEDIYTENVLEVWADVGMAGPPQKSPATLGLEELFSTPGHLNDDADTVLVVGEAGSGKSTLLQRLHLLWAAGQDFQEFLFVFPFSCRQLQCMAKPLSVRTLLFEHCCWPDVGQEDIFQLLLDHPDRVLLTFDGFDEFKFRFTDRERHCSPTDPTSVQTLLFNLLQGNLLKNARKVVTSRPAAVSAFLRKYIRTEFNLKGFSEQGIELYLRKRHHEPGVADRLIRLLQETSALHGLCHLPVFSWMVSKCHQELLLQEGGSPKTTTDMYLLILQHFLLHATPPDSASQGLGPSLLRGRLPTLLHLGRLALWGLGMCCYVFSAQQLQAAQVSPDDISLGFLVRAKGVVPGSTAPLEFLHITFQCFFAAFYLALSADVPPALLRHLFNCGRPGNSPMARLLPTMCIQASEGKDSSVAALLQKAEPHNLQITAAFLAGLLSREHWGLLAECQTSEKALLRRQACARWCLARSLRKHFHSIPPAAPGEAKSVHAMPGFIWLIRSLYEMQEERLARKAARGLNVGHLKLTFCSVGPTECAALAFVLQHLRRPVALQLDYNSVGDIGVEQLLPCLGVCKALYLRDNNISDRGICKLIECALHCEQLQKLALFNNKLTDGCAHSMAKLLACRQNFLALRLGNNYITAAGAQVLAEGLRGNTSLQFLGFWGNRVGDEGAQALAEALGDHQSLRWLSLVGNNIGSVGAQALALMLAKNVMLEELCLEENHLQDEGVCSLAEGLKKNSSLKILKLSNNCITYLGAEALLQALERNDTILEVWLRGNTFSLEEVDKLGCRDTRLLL
Description: Antagonist activity at human NOD2 (unknown origin)

Row | SMILES | IC50 [1] | viability at 18 h, 25 µM [2] | viability at 18 h, 25 µM [3] | IC50 [4]
1 | Cc1ccc(S(=O)(=O)n2c(NCc3ccccc3)c(N3CCN(C)CC3)c3cc4ccccc4cc32)cc1 | 20.7 µM | ≥ 80% | ≥ 80% | –
2 | COc1ccc(S(=O)(=O)n2c(NC(C)(C)C)c(N3CCOCC3)c3ccccc32)cc1 | – | ≥ 80% | ≥ 80% | –
3 | O=[N+]([O-])c1ccc(S(=O)(=O)n2c(NCc3ccccc3)c(N3CCOCC3)c3ccccc32)cc1 | – | ≥ 80% | ≥ 80% | –
4 | CCCCCNc1c(N2CCOCC2)c2ccccc2n1S(=O)(=O)c1ccc([N+](=O)[O-])cc1 | 26.1 µM | ≥ 80% | ≥ 80% | –
5 | C#CCN(C)c1c(Nc2ccc3ccccc3c2)n(S(=O)(=O)c2ccc(C)cc2)c2cc(Cl)ccc12 | – | ≥ 80% | ≥ 80% | –
6 | Cc1ccc(S(=O)(=O)n2c(NC3CCCCC3)c(N3CCN(C)CC3)c3cc4ccccc4cc32)cc1 | – | ≥ 80% | ≥ 80% | –
7 | Cc1ccc(S(=O)(=O)n2c(NC3CCCCC3)c(N3CCN(C)CC3)c3ccccc32)cc1 | 18.5 µM | ≥ 80% | ≥ 80% | –
8 | CCCCCn1c(SCCc2ccccc2)nc2[nH]c(=O)[nH]c(=O)c21 | – | – | – | > 20 µM
9 | COC(=O)CNc1c(N2CCOCC2)c2ccccc2n1S(=O)(=O)c1ccc(C)cc1 | – | ≥ 80% | ≥ 80% | –
10 | CCN(CC)c1c(NC(C)(C)C)n(S(=O)(=O)c2ccc(C)cc2)c2cccc(C)c12 | – | ≥ 80% | ≥ 80% | –
11 | CCCCCNc1c(N2CCOCC2)c2ccccc2n1S(=O)(=O)c1ccc(C)cc1 | – | ≥ 80% | ≥ 80% | –
12 | CCCCCNc1c(N(CC)CC)c2ccccc2n1S(=O)(=O)c1ccc(C)cc1 | – | ≥ 80% | ≥ 80% | –
13 | CCN(CC)c1c(NC(C)(C)C)n(S(=O)(=O)c2ccc(C)cc2)c2ccccc12 | – | ≥ 80% | ≥ 80% | –
14 | Cc1ccc(S(=O)(=O)n2c(NC(C)(C)C)c(N3CCOCC3)c3ccccc32)cc1 | – | ≥ 80% | ≥ 80% | –
15 | Cc1ccc(S(=O)(=O)n2c(NCc3ccccc3)c(N3CCOCC3)c3ccccc32)cc1 | – | ≥ 80% | ≥ 80% | –
16 | Cc1ccc(S(=O)(=O)n2c(NC(C)(C)C)c(N3CCOCC3)c3cc(Cl)ccc32)cc1 | – | ≥ 80% | ≥ 80% | –
17 | Cc1ccc(S(=O)(=O)n2c(NC(C)(C)C)c(N3CCCCC3)c3ccccc32)cc1 | – | ≥ 80% | ≥ 80% | –
18 | Cc1ccc(S(=O)(=O)n2c(NCc3ccccc3)c(N3CCN(C)CC3)c3ccccc32)cc1 | – | ≥ 80% | ≥ 80% | –
19 | Cc1ccc(S(=O)(=O)n2c(NC(C)(C)C)c(N3CCN(C)CC3)c3cc4ccccc4cc32)cc1 | – | ≥ 80% | ≥ 80% | –
20 | CC(C)(C)Nc1c(N2CCOCC2)c2ccccc2n1S(=O)(=O)c1ccc([N+](=O)[O-])cc1 | – | ≥ 80% | ≥ 80% | –
21 | Cc1ccc(S(=O)(=O)n2c(NC3CC3)c(N3CCOCC3)c3cc(Cl)ccc32)cc1 | – | ≥ 80% | ≥ 80% | –
